Measured values: ChEMBL document CHEMBL5113478, “7-Azaindole, 2,7-diazaindole, and 1H-pyrazole as core structures for novel anticancer agents with potential chemosensitizing properties” (Eur J Med Chem, 2022)
Calls of active or inactive are those of the source. The calls are words filed in the database; no cut-off is given here.

How the values were obtained:
SAOS-2 [1] = experiment: Antiproliferative activity against human SAOS-2 cells assessed as […] cell proliferation at 10 uM incubated for 48 hrs in presence of 15 uM of CDDP by WST-1 assay relative to control; format: functional
[2] = target: T1, Aurora kinase A (Homo sapiens) (UniProt O14965); experiment: Inhibition of human Aurora-A assessed as residual activity at 10 uM relative to control
T1 sequence (whole entry): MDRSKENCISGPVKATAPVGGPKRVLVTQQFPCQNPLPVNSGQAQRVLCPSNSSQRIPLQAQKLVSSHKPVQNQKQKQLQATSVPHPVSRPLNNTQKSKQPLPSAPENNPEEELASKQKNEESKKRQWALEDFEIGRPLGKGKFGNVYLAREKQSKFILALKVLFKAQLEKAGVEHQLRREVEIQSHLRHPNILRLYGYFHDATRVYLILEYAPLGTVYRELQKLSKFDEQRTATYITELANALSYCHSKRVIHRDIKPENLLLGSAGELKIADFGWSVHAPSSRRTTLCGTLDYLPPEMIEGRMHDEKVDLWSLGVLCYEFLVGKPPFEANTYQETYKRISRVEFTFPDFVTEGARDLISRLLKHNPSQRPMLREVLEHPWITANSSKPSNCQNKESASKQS

HT-29 [3] = experiment: Antiproliferative activity against human HT-29 cells assessed as […] cell proliferation at 10 uM incubated for 48 hrs by WST-1 assay relative to control; format: functional
MCF7 [4] = experiment: Antiproliferative activity against human MCF7 cells assessed as […] cell proliferation at 10 uM incubated for 48 hrs by WST-1 assay relative to control; format: functional
PANC-1 [5] = experiment: Antiproliferative activity against human PANC-1 cells assessed as […] cell proliferation at 10 uM incubated for 48 hrs by WST-1 assay relative to control; format: functional
[6] = target: Fibroblast growth factor receptor 3 (Homo sapiens) (UniProt P22607); experiment: Inhibition of human FGFR3 assessed as residual activity at 10 uM relative to control
Sequence of Fibroblast growth factor receptor 3 (Homo sapiens) (P22607 23-806 limits assumed): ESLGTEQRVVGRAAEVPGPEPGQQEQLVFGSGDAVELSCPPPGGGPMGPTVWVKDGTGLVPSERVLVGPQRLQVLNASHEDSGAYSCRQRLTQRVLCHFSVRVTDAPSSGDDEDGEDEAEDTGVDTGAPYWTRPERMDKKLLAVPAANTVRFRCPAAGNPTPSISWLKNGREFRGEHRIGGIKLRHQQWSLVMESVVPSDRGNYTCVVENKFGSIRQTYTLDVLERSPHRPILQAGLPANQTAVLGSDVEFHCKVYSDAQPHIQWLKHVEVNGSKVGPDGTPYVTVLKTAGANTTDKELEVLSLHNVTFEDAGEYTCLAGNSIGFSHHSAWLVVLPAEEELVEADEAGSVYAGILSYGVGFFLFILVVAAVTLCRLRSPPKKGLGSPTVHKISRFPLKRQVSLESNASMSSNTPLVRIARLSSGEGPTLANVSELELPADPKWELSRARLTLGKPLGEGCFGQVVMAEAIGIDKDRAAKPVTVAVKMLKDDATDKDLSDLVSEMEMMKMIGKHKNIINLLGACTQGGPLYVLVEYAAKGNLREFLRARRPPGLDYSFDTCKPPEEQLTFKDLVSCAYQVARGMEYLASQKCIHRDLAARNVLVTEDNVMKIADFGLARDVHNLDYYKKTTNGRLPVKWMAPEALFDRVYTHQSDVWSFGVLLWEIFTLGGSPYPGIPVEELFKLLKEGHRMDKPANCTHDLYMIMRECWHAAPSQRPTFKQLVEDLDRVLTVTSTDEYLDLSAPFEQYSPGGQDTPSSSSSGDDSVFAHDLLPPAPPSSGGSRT

[7] = target: T2, Cytoplasmic tyrosine-protein kinase BMX (Homo sapiens) (UniProt P51813); experiment: Inhibition of human Bmx assessed as residual activity at 10 uM relative to control
T2 sequence (whole entry): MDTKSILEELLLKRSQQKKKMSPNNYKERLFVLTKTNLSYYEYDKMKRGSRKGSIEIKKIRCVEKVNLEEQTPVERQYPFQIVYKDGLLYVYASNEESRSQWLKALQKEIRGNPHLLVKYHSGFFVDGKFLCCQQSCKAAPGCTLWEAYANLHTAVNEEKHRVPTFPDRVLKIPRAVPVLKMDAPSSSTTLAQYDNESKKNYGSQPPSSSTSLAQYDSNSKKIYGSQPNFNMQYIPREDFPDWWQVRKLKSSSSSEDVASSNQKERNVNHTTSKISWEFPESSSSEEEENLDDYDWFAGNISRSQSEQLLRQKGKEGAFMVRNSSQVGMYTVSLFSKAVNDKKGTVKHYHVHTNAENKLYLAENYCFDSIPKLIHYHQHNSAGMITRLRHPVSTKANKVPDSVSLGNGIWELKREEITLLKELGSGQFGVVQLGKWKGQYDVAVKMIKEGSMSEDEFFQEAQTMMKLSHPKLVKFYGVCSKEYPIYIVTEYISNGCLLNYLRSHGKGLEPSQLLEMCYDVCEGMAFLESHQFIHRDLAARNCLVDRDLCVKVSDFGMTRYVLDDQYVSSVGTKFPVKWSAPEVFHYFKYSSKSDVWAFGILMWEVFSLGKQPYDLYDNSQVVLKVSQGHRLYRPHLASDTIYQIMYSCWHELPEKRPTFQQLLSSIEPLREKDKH

[8] = target: High affinity nerve growth factor receptor (Homo sapiens) (UniProt P04629); experiment: Inhibition of human TrkA assessed as residual activity at 10 uM relative to control
Sequence of High affinity nerve growth factor receptor (Homo sapiens) (P04629 33-796 limits assumed): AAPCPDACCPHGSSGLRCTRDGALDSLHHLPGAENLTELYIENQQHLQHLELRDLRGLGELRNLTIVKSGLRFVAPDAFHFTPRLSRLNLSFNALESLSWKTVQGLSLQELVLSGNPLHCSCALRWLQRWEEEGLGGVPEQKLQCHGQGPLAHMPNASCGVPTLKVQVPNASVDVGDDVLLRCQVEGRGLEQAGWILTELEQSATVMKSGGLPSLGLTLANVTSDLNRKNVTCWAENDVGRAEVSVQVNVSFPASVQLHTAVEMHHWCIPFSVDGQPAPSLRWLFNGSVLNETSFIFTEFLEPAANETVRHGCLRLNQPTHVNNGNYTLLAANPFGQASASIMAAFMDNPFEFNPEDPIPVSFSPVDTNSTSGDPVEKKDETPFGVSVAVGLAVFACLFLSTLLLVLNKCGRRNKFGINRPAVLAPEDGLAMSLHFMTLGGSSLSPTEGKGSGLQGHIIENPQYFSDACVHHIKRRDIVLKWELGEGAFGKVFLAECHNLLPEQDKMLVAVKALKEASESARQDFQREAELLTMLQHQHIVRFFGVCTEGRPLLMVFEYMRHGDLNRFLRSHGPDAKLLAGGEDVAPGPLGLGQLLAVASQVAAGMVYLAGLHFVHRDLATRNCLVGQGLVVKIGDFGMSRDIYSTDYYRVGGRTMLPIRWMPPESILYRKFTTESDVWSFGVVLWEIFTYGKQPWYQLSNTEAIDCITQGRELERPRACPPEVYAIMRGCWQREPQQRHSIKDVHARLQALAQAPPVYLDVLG

MOLT-4 [9] = experiment: Antiproliferative activity against human MOLT-4 cells assessed as […] cell proliferation at 10 uM incubated for 48 hrs by WST-1 assay relative to control; format: functional
A2780 [10] = experiment: Antiproliferative activity against human A2780 cells assessed as […] cell proliferation at 10 uM incubated for 48 hrs in presence of 2 uM of CDDP by WST-1 assay relative to control; format: functional
SAOS-2 [11] = experiment: Antiproliferative activity against human SAOS-2 cells assessed as […] cell proliferation at 10 uM incubated for 48 hrs by WST-1 assay relative to control; format: functional
Jurkat [12] = experiment: Antiproliferative activity against human Jurkat cells assessed as […] cell proliferation at 10 uM incubated for 48 hrs by WST-1 assay relative to control; format: functional
1321N1 [13] = experiment: Cytotoxicity against human 1321N1 cells assessed as reduction in cell viability at 15 uM incubated for 48 hrs by MTT assay; format: functional, cell-based
A2780 [14] = experiment: Antiproliferative activity against human A2780 cells assessed as […] cell proliferation at 10 uM incubated for 48 hrs by WST-1 assay relative to control; format: functional
[15] = tested on: Mast/stem cell growth factor receptor Kit (Homo sapiens), P10721 [V560G]; experiment: Inhibition of human cKit V560G mutant assessed as residual activity at 10 uM relative to control
[16] = target: Vascular endothelial growth factor receptor 1 (Homo sapiens) (UniProt P17948); experiment: Inhibition of human FLT1 assessed as residual activity at 10 uM relative to control
[17] = target: Vascular endothelial growth factor receptor 3 (Homo sapiens) (UniProt P35916); experiment: Inhibition of human FLT4 assessed as residual activity at 10 uM relative to control
GBM = experiment: Cytotoxicity against patient-derived human GBM cells assessed as reduction in cell viability at 15 uM incubated for 48 hrs by MTT assay; format: functional
PANC-1 [18] = experiment: Antiproliferative activity against human PANC-1 cells assessed as […] cell proliferation at 10 uM incubated for 48 hrs in presence of 15 uM of CDDP by WST-1 assay relative to control; format: functional
A549 [19] = experiment: Antiproliferative activity against human A549 cells assessed as […] cell proliferation at 10 uM incubated for 48 hrs by WST-1 assay relative to control; format: functional
HT-29 [20] = experiment: Antiproliferative activity against human HT-29 cells assessed as […] cell proliferation at 10 uM incubated for 48 hrs in presence of 15 uM of CDDP by WST-1 assay relative to control; format: functional
ATR/ATRIP (Homo sapiens) = ATR/ATRIP (Homo sapiens) (UniProt Q13535+Q8WXE1); experiment: Inhibition of human ATR/ATRIP assessed as residual activity at 10 uM relative to control; format: protein-complex assay
HeLa [21] = experiment: Antiproliferative activity against human HeLa cells assessed as […] cell proliferation at 10 uM incubated for 48 hrs by WST-1 assay relative to control; format: functional
[22] = target: Angiopoietin-1 receptor (Homo sapiens) (UniProt Q02763); experiment: Inhibition of human Tie2 assessed as residual activity at 10 uM relative to control
[23] = target: Protein kinase C alpha type (Homo sapiens) (UniProt P17252); experiment: Inhibition of human PKCalpha assessed as residual activity at 10 uM relative to control
[24] = target: Fibroblast growth factor receptor 2 (Homo sapiens) (UniProt P21802); experiment: Inhibition of human FGFR2 assessed as residual activity at 10 uM relative to control
Sequence of Fibroblast growth factor receptor 2 (Homo sapiens) (P21802 22-821 limits assumed): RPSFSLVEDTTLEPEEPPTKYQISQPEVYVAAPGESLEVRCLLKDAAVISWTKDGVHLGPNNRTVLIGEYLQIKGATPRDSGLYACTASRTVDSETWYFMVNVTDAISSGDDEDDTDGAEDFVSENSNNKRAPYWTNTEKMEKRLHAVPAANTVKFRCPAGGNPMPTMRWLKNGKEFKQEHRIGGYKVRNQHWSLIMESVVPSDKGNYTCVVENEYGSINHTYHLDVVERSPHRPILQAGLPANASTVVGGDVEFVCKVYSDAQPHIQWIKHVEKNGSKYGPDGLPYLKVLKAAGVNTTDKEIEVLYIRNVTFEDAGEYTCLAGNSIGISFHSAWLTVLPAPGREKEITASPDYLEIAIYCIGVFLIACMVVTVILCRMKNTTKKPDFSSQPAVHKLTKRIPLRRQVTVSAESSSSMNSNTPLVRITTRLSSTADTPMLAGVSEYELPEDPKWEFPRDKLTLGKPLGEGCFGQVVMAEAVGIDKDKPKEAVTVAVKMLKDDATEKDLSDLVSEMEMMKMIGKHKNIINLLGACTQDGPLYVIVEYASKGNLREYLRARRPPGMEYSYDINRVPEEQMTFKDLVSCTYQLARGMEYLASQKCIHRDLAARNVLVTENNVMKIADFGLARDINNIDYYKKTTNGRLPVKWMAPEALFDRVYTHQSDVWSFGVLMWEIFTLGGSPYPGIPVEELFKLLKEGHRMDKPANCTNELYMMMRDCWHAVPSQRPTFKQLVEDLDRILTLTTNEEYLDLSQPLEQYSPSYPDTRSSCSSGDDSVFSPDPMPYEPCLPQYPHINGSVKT

A549 [25] = experiment: Antiproliferative activity against human A549 cells assessed as […] cell proliferation at 10 uM incubated for 48 hrs in presence of 15 uM of CDDP by WST-1 assay relative to control; format: functional
MOLT-4 [26] = experiment: Antiproliferative activity against human MOLT-4 cells assessed as […] cell proliferation at 10 uM incubated for 48 hrs in presence of 2 uM of CDDP by WST-1 assay relative to control; format: functional
MCF7 [27] = experiment: Antiproliferative activity against human MCF7 cells assessed as […] cell proliferation at 10 uM incubated for 48 hrs in presence of 10 uM of CDDP by WST-1 assay relative to control; format: functional
HeLa [28] = experiment: Antiproliferative activity against human HeLa cells assessed as […] cell proliferation at 10 uM incubated for 48 hrs in presence of 15 uM of CDDP by WST-1 assay relative to control; format: functional
[29] = target: Proto-oncogene tyrosine-protein kinase receptor Ret (Homo sapiens) (UniProt P07949); experiment: Inhibition of human Ret assessed as residual activity at 10 uM relative to control
Sequence of Proto-oncogene tyrosine-protein kinase receptor Ret (Homo sapiens) (P07949 whole entry): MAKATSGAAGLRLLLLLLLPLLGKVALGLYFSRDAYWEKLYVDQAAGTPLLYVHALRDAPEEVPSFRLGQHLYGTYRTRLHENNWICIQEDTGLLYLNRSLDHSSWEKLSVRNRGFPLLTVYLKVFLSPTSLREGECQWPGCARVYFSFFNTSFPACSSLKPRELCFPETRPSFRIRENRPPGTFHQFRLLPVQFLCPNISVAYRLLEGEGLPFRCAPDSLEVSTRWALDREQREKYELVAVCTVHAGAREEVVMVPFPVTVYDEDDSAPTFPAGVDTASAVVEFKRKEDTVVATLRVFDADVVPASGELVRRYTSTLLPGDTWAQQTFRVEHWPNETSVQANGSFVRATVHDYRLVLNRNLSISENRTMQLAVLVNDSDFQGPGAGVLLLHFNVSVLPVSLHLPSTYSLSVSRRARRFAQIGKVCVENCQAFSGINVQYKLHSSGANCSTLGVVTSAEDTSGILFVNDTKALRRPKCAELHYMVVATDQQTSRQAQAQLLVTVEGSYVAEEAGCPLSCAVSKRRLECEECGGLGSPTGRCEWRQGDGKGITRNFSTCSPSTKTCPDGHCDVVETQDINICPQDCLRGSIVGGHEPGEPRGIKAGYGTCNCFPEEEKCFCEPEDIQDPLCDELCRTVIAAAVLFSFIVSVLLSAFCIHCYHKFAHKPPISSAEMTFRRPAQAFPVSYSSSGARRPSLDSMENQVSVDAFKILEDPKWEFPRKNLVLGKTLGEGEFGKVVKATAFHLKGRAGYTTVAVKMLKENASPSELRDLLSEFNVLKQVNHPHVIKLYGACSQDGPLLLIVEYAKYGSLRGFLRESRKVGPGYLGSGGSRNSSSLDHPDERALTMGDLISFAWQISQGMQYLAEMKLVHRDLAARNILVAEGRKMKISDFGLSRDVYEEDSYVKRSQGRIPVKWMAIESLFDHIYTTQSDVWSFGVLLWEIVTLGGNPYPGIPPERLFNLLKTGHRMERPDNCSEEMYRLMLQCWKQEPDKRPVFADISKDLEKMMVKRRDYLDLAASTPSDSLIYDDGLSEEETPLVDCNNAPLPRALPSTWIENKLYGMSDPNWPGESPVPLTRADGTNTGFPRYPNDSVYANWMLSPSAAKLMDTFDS

Jurkat [30] = experiment: Antiproliferative activity against human Jurkat cells assessed as […] cell proliferation at 10 uM incubated for 48 hrs in presence of 2 uM of CDDP by WST-1 assay relative to control; format: functional
[31] = target: Vascular endothelial growth factor receptor 2 (Homo sapiens) (UniProt P35968); experiment: Inhibition of human KDR assessed as residual activity at 10 uM relative to control
Sequence of Vascular endothelial growth factor receptor 2 (Homo sapiens) (P35968 whole entry): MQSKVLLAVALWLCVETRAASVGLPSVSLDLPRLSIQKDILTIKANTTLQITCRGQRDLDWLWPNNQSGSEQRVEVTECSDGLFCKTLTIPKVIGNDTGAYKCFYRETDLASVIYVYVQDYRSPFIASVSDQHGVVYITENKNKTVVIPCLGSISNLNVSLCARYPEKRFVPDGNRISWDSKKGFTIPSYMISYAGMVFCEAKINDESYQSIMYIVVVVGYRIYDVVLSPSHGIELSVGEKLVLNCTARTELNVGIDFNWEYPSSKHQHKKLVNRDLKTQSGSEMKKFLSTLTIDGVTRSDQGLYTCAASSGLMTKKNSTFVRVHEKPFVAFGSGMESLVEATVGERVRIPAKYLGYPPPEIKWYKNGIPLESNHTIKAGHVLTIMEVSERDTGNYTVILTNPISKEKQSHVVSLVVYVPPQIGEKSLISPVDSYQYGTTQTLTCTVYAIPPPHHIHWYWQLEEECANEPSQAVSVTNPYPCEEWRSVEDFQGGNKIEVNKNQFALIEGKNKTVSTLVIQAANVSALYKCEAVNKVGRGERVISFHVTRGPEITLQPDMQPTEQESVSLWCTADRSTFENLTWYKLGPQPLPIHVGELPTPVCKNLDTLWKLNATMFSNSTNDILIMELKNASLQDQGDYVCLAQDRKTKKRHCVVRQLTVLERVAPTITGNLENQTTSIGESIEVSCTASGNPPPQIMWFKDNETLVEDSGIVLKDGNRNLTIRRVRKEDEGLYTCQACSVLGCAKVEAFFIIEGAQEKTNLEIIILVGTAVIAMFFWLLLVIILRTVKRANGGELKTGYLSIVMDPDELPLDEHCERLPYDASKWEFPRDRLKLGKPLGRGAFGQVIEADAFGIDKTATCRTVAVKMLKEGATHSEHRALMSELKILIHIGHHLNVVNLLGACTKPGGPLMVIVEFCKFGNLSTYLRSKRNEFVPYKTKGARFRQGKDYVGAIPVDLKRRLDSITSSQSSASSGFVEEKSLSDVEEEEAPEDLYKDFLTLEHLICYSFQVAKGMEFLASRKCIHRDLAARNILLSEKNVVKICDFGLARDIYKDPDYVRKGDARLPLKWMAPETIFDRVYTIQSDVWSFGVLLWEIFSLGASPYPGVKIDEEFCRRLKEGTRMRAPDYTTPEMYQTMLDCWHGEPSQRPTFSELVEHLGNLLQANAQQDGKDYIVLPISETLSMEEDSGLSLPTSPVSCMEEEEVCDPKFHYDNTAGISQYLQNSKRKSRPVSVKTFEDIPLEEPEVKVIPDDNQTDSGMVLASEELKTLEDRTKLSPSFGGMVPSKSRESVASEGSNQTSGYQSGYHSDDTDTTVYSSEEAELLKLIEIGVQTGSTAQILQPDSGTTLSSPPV

1321N1 [32] = experiment: Chemo-sensitizing activity against human 1321N1 cells at 15 uM incubated for 48 hrs in presence of TMZ by MTT assay; format: functional, cell-based

SMILES	Activity (SAOS-2 [1]) [%]	Cell viability relative to control (HT-29 [3]) [%]	Activity (MCF7 [4]) [%]	Activity (PANC-1 [5]) [%]	Activity (MOLT-4 [9]) [%]	Activity (A2780 [10]) [%]	Activity (SAOS-2 [11]) [%]	Activity (Jurkat [12]) [%]	Activity (1321N1 [13])	Activity (A2780 [14]) [%]	Activity (GBM)	Activity (PANC-1 [18]) [%]	Activity (A549 [19]) [%]	Activity (HT-29 [20]) [%]	Activity (HeLa [21]) [%]	Activity (A549 [25]) [%]	Activity (MOLT-4 [26]) [%]	Activity (MCF7 [27]) [%]	Activity (HeLa [28]) [%]	Activity (Jurkat [30]) [%]	other results
CC(C)S(=O)(=O)c1ccc(-c2cnc3[nH]cc(C(=O)N4CCC(c5ccccc5)CC4)c3c2)cc1	28	30	30	30	30	28	30	30	Active	30	Active	28	30	28	30	28	28	28	28	28	Activity [2]: 45%; Activity [6]: 60%; Activity [7]: 56%; Activity [8]: 42%; Activity [15]: 30%; Activity [16]: 49%; Activity [17]: 10%; Activity (ATR/ATRIP (Homo sapiens)): 91%; Activity [22]: 57%; Activity [23]: 90%; Activity [24]: 57%; Activity [29]: 16%; Activity [31]: 52%
CC(C)S(=O)(=O)c1ccc(-c2cnc3[nH]c(C(=O)N4CCc5ccccc5C4)cc3c2)cc1	57	71	71	71	71	57	71	71	Active	71	50%	57	71	57	71	57	57	57	57	57	Activity (1321N1 [32]): Active
CC(C)S(=O)(=O)c1ccc(-c2cnc3[nH]nc(C(=O)N4CCC(c5ccccc5)CC4)c3c2)cc1	49	79	79	79	79	49	79	79	Active	79	50%	49	79	49	79	49	49	49	49	49	Activity [2]: 80%; Activity [6]: 90%; Activity [7]: 98%; Activity [8]: 108%; Activity [15]: 89%; Activity (1321N1 [32]): Active; Activity [16]: 61%; Activity [17]: 39%; Activity (ATR/ATRIP (Homo sapiens)): 59%; Activity [22]: 70%; Activity [23]: 59%; Activity [24]: 105%; Activity [29]: 77%; Activity [31]: 73%
CC(C)S(=O)(=O)c1ccc(-c2cc(C(=O)N3CCc4ccccc4C3)n[nH]2)cc1	57	82	82	82	82	57	82	82	Active	82	50%	57	82	57	82	57	57	57	57	57	Activity (1321N1 [32]): Active
